Experimental data from patent US20240299488A1, “METHODS AND COMPOSITIONS FOR IMPROVING VISUAL FUNCTION IN OCULAR DISEASES AND DISORDERS” (ONL Therapeutics, Inc., priority 2021, published 2024).
Several values for one entry are separate records, joined by “and”; a condition that tells them apart may be missing. Equal entries are not always repeated. Ends that are not written are not given here.

Tests used:
Type in all cases: in vivo, human
MCP1 = test: Example 2: change in cytokine level in ocular fluid samples, MCP1
Experimental: (§1) The primary objective was to determine the Maximum Tolerated Dose (MTD) of a peptide an amino acid sequence […] and the structure of Formula III (ONL1204) and select doses for further clinical studies. During the study, ocular fluid samples were also collected at the time of study drug injection and at the time of vitrectomy. These samples were used for pharmacokinetic and pharmacodynamic analyses.
(§2) Patients were enrolled in ascending dose groups. […] Safety visits were conducted one day post-injection and as deemed necessary by the examining Investigator (at least 1 visit every 3 days) until Visit 3. At Visit 3 (3+ days post-injection, in accordance with standard of care) patients underwent surgical repair of their retinal detachment with vitrectomy (with or without scleral buckling) and gas or oil tamponade. At the time of surgery, an undiluted vitreous sample was collected for pharmacokinetic and pharmacodynamics analyses, and an aqueous sample was collected for pharmacodynamic analysis. Additional safety visits were targeted for and generally conducted one day post-surgery, 7 days (±3 days) post-surgery, 14 (+4 days) days post-surgery, and Weeks 6, 9, 12 (±7 days each), and Week 24 (+14 days; study exit).

ICAM1 = test: Example 2: change in cytokine level in ocular fluid samples, ICAM1
Experimental: as §1, §2

[1] = test system: patients with retinal detachment; test: Example 2: BCVA in retinal detachment patients, intravitreal injection followed by surgical repair; design: key to BCVA Snellen study eye: (HM) = hand motion; (CF) = counting fingers; settings: for summary statistics for all patients, mean: doses 25 to 200 ug, baseline mean 1.86
Experimental: as §1, §2
Therefore, a volume of 0.05 or 0.1 mL was injected into the study eye. Patient participation was approximately 24 weeks (6 months): a single injection treatment and 24 weeks of follow-up.

[2] = test system: patients having macular degeneration characterized by geographic atrophy (GA); test: Example I: BCVA in GA patients after single intravitreal injection
[3] = test system: patients with retinal detachment; test: Example 2: safety, adverse event reporting
Experimental: as §1, §2
The following doses were evaluated: 25 microgram (ug) and 50 ug provided in vials with concentrations of 0.5 mg/mL and/or 2 mg/mL of Formula III. Therefore, a volume of 0.05 or 0.1 mL was injected into the study eye. Patient participation was approximately 24 weeks (6 months): a single injection treatment and 24 weeks of follow-up.
Planned determinations of dose limiting toxicity included consideration of the following events: • 1.

IL18 = test: Example 2: change in cytokine level in ocular fluid samples, IL18
Experimental: as §1, §2

IL1RA = test: Example 2: change in cytokine level in ocular fluid samples, IL1RA
Experimental: as §1, §2

[4] = dose 25 ug (Table 1), individual patients
[5] = dose 50 ug (Table 1), individual patients
[6] = dose 100 ug (Table 1), individual patients
[7] = dose 200 ug (Table 1), individual patient

Substance: HHIYLGAVNYIY-NH2 [ONL1204]
- Percent Change (%) from time of administering ONL1204 to surgery, MCP1 (MCP1; [4]): −41.4% and −6.02% and −35.9%
- Percent Change (%) from time of administering ONL1204 to surgery, MCP1 (MCP1; [5]): −3.12% and −48.4% and 11.6%
- Percent Change (%) from time of administering ONL1204 to surgery, MCP1 (MCP1; [6]): −9.5% and 78.5% and 500%
- Percent Change (%) from time of administering ONL1204 to surgery, MCP1 (MCP1; [7]): −2.4%
- change in cytokine levels (MCP 1, ICAM, IL IRA, and IL 18) from time of ONL1204 administration to surgery (MCP1; mean over patients of Table 7): mean decrease
- Percent Change (%) from time of administering ONL1204 to surgery, ICAM1 (ICAM1; [4]): −82.4% and −42.7% and −86.2%
- Percent Change (%) from time of administering ONL1204 to surgery, ICAM1 (ICAM1; [5]): 64.0% and −100% and 0%
- Percent Change (%) from time of administering ONL1204 to surgery, ICAM1 (ICAM1; [6]): −43.9% and 24.9% and 22.7%
- Percent Change (%) from time of administering ONL1204 to surgery, ICAM1 (ICAM1; [7]): 0%
- summary statistics for all patients, mean ([1]; Week 6, n 14): 0.65
- summary statistics for all patients, mean ([1]; Week 9, n 13): 0.78
- summary statistics for all patients, mean ([1]; Week 24, n 13): 0.56
- visual outcomes, all patients receiving ONL1204 ([1]; also with greater than 10 days of central vision loss, 3 to 7 days from administration to surgery, range of detachment heights and extents): improved visual outcomes were observed for all patients receiving ONL1204
- visual outcomes (e.g., visual acuity) ([1]; retinal detachment patients, doses comprising 25 ug and 50 ug, with surgery): showed an improvement in visual outcomes
- BCVA Snellen study eye ([1]; week 9, dose 100 ug, individual patients): HM
- change in best corrected visual acuity (BCVA) ([2]; compared to baseline BCVA, FIG. 1, 1 to 24 weeks post treatment): improvement in visual acuity was generally observed
- visual outcomes (e.g., visual acuity) ([2]; doses comprising 25 ug and 50 ug, single intravitreal injection): showed an improvement in visual outcomes
- patients who experienced adverse events ([3]; 4 patients receiving 25 ug and 4 patients receiving 50 ug): 7 out of 8
- severity and relatedness of adverse events ([3]; 8 patients, 25 ug and 50 ug): Most were mild, and study procedure or surgery related
- total number of adverse events ([3]; 8 patients, 25 ug and 50 ug): 20
- Percent Change (%) from time of administering ONL1204 to surgery, IL18 (IL18; [4]): −60.5% and −22.5% and −50.8%
- Percent Change (%) from time of administering ONL1204 to surgery, IL18 (IL18; [5]): 0% (2×) and −100%
- Percent Change (%) from time of administering ONL1204 to surgery, IL18 (IL18; [6]): −33.7% and 0% and 66.0%
- Percent Change (%) from time of administering ONL1204 to surgery, IL18 (IL18; [7]): 0%
- Percent Change (%) from time of administering ONL1204 to surgery, IL1RA (IL1RA; [4]): −51.0% and −57.4% and −99.3%
- Percent Change (%) from time of administering ONL1204 to surgery, IL1RA (IL1RA; [5]): −60.0% and −94.4% and −88.3%
- Percent Change (%) from time of administering ONL1204 to surgery, IL1RA (IL1RA; [6]): 8.5% and −46.1% and −65.2%
- Percent Change (%) from time of administering ONL1204 to surgery, IL1RA (IL1RA; [7]): −26.3%
